Measured values from patent US20120328569A1, “INHIBITORS OF HEPATITIS C VIRUS NS5B POLYMERASE” (priority 2010, published 2012).

Tested on: HCV genotype 1b replicon
Experiment: HCV replicon assay, cell ELISA with antibody to replicon-encoded NS3/4A (genotype 1b replicon)
Assay type: cell-based, hepatitis C virus
Conditions: Hepatitis C virus, 96 h, read-out: 1b IC50(nM), HCV genotype 1b replicon; 96 hours incubation; NS3/4A cell ELISA
How it was run: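 An ELISA on lysed cells, using an antibody against NS3/4A protease, served as the proxy for replicon RNA. Cells had first been exposed for 96 h to serially diluted compound in G418-free conditions. Percent of DMSO control was fitted with a four-parameter function to give IC50.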

SMILES	IC50 [nM]
CNC(=O)c1c(-c2ccc(F)cc2)oc2cc(N(CC(C)(C)O)S(C)(=O)=O)c(-c3ccc(OC)c(-c4nc5c(F)cccc5o4)c3)cc12 [Example 779]	8.28
CNC(=O)c1c(-c2ccc(F)cc2)oc2cc(N(CC(F)F)S(C)(=O)=O)c(-c3cc(F)cc(-c4nc5ncccc5o4)c3)cc12 [Example 876]	3.5
CNC(=O)c1c(-c2ccc(F)cc2)oc2cc(N(C)S(C)(=O)=O)c(-c3ccc(OC)c(-c4nc5c(C(=O)NC)cccc5o4)c3)cc12 [Example 637]	4.03
CNC(=O)c1c(-c2ccc(F)cc2)oc2cc(N(CCC(C)(C)O)S(C)(=O)=O)c(-c3cccc(-c4nc5ncccc5o4)c3)cc12 [Example 859]	2.1
CNC(=O)c1c(-c2ccc(F)cc2)oc2cc(N(CCC(C)(C)C#N)S(C)(=O)=O)c(-c3ccc(OC)c(-c4nc5c(F)cccc5o4)c3)cc12 [Example 733]	7.78
CNC(=O)c1c(-c2ccc(F)cc2)oc2cc(N(C)S(C)(=O)=O)c(-c3ccc(-c4cnco4)c(-c4nc5c(Cl)cccc5o4)c3)cc12 [Example 480]	3.01
CNC(=O)c1c(-c2ccc(F)cc2)oc2cc(N(C)S(C)(=O)=O)c(-c3ccc(O)c(-c4nc5c(Cl)cccc5o4)c3)cc12 [Example 607]	27.1
CNC(=O)c1c(-c2ccc(F)cc2)oc2cc(N(C)S(C)(=O)=O)c(-c3ccc(OC)c(-c4nc5cc(-c6cncnc6)ccc5o4)c3)cc12 [Example 663]	2.5
CNC(=O)c1c(-c2ccc(F)cc2)oc2cc(N(C)S(C)(=O)=O)c(-c3ccc(OCCO)c(-c4nc5c(F)cccc5o4)c3)cc12 [Example 620]	1.66
CNC(=O)c1c(-c2ccc(F)cc2)oc2cc(N(C)S(C)(=O)=O)c(-c3ccc(S(C)(=O)=O)c(-c4nc5c(Cl)cccc5o4)c3)cc12 [Example 420]	5.08
CNC(=O)c1c(-c2ccc(F)cc2)oc2cc(N(CC3(C)COC3)S(C)(=O)=O)c(-c3ccc(OC)c(-c4nc5c(F)cccc5o4)c3)cc12 [Example 724]	4.47
CNC(=O)c1c(-c2ccc(F)cc2)oc2cc(N(C)S(C)(=O)=O)c(-c3cc(OC)cc(-c4nc5ncccc5o4)c3)cc12 [Example 866]	3.1

Same assay, conditions: Hepatitis C virus, 96 h, read-out: Replicon 1b IC50 (nM), HCV genotype 1b replicon cells, 96 hours incubation, NS3/4A ELISA readout

SMILES	IC50 [nM]
CONC(=O)c1c(-c2ccc(F)cc2)oc2cc(N(C)S(C)(=O)=O)c(-c3cccc(C#N)c3)cc12 [Example 94, 5-(3-cyanophenyl)-2-(4-fluorophenyl)-N-methoxy-6-[methyl (methylsulfonyl)amino]-1-benzofuran-3-carboxamide]	450
CNC(=O)c1c(-c2ccc(F)cc2)oc2cc(N(C)S(C)(=O)=O)c(-c3cccc(-c4nc5cc(F)cnc5o4)c3)cc12 [Example 224]	2.3
CNC(=O)c1c(-c2ccc(F)cc2)oc2cc(N(C)S(C)(=O)=O)c(-c3ccccc3)cc12 [Example 1, 2-(4-fluorophenyl)-N-methyl-6-[methyl(methylsulfonyl)amino]-5-phenyl-1-benzofuran-3-carboxamide]	120
CNC(=O)c1c(-c2ccc(F)cc2)oc2cc(N(C)S(C)(=O)=O)c(-c3cccc(-c4nc5cc(Cl)cnc5[nH]4)c3)cc12 [Example 331]	1.8
CNC(=O)c1c(-c2ccc(F)cc2)oc2cc(N(CCO)S(C)(=O)=O)c(-c3cc(F)cc(-c4nc5ncccc5o4)c3)cc12 [Compound 386]	1.3
CNC(=O)c1c(-c2ccc(F)cc2)oc2cc(N(CC(C)C)S(C)(=O)=O)c(-c3ccccc3)cc12 [Example 16, 2-(4-fluorophenyl)-N-methyl-6-[(2-methylpropyl) (methylsulfonyl)amino]-5-phenyl-1-benzofuran-3-carboxamide]	68
CNC(=O)c1c(-c2ccc(F)cc2)oc2cc(N(C)S(C)(=O)=O)c(-c3cc(F)cc(-c4cc5ccccc5[nH]4)c3)cc12 [Compound 372]	13
CNC(=O)c1c(-c2ccc(F)cc2)oc2cc(N(C)S(C)(=O)=O)c(-c3cccc(-c4nc5cncnc5[nH]4)c3O)cc12 [Example 346]	165
CNC(=O)c1c(-c2cccc(-c3cc4c(C(=O)NC)c(-c5ccc(F)cc5)oc4cc3N(C)S(C)(=O)=O)c2)[nH]c2ccccc12 [Compound 377]	1.2
CNC(=O)c1c(-c2ccc(F)cc2)oc2cc(N(C)S(C)(=O)=O)c(-c3ccc(OC)c(-c4nc5ccccc5o4)c3)cc12 [Example 183]	1.5
CNC(=O)c1c(-c2ccc(F)cc2)oc2cc(N(C)S(C)(=O)=O)c(-c3cccc(-c4nc5ccccc5s4)c3)cc12 [Example 135, 5-(3-(benzo[d]thiazol-2-yl)phenyl)-2-(4-fluorophenyl)-N-methyl-6-(N-methylmethylsulfonamido)-1-benzofuran-3-carboxamide]	4
CNC(=O)c1c(-c2ccc(F)cc2)oc2cc(N(C)S(C)(=O)=O)c(-c3cccc(-c4nc5ccc(Cl)cc5o4)c3)cc12 [Example 171]	6.8
CONC(=O)c1c(-c2ccc(F)cc2)oc2cc(N(C)S(C)(=O)=O)c(-c3cccc(OC)c3)cc12 [Example 97, 2-(4-fluorophenyl)-N-methoxy-5-(3-methoxyphenyl)-6-[methyl (methylsulfonyl)amino]-1-benzofuran-3-carboxamide]	126
CNC(=O)c1c(-c2ccc(F)cc2)oc2cc(N(C)S(C)(=O)=O)c(-c3ccc(F)c(-c4cc5cccnc5[nH]4)c3)cc12 [Compound 380]	1.2
CNC(=O)c1c(-c2ccc(F)cc2)oc2cc(N(C)S(C)(=O)=O)c(-c3cccc(-c4nc5ccncc5o4)c3)cc12 [Example 216]	8.2
CNC(=O)c1c(-c2ccc(F)cc2)oc2cc(N(C)S(C)(=O)=O)c(-c3cccc(CNS(C)(=O)=O)c3)cc12 [Example 102, 2-(4-fluorophenyl)-N-methyl-6-[methyl(methylsulfonyl)amino]-5-(3-{[(methylsulfonyl)amino]methyl}phenyl)-1-benzofuran-3-carboxamide]	7
CNC(=O)c1c(-c2ccc(F)cc2)oc2cc(N(C)S(C)(=O)=O)c(-c3cccc(-c4nc5ncc(Cl)cc5o4)c3)cc12 [Example 202]	1
CNC(=O)c1c(-c2ccc(F)cc2)oc2cc(N(C)S(C)(=O)=O)c(-c3cccc(-c4nc5cncnc5[nH]4)c3)cc12 [Example 341]	14.6
CNC(=O)c1c(-c2ccc(F)cc2)oc2cc(N(C)S(C)(=O)=O)c(-c3cc(F)cc(-c4nc5ncccc5o4)c3)cc12 [Example 198]	1.4

SMILES	IC50 [nM]
CCC(C)CN(c1cc2oc(-c3ccc(F)cc3)c(C(=O)NC)c2cc1-c1ccccc1)S(C)(=O)=O (stereo not shown) [Example 19, 2-(4-fluorophenyl)-N-methyl-6-[(2-methylbutyl) (methylsulfonyl)amino]-5-phenyl-1-benzofuran-3-carboxamide]	227
CNC(=O)c1c(-c2ccc(F)cc2)oc2cc(N(C)S(C)(=O)=O)c(-c3cccc(-c4nnc(-c5ccccc5)o4)c3)cc12 [Example 137, 2-(4-fluorophenyl)-N-methyl-6-[methyl (methylsulfonyl)amino]-5-[3-(5-phenyl-1,3,4-oxadiazol-2-yl)phenyl]-1-benzofuran-3-carboxamide]	6
CNC(=O)c1c(-c2ccc(F)cc2)oc2cc(N(C)S(C)(=O)=O)c(-c3cc(F)cc(-c4nc5cc(Cl)cnc5o4)c3)cc12 [Example 219]	3
CCOC(=O)CCCN(c1cc2oc(-c3ccc(F)cc3)c(C(=O)NC)c2cc1-c1ccccc1)S(C)(=O)=O [Example 42, ethyl 4-{[2-(4-fluorophenyl)-3-(methylcarbamoyl)-5-phenyl-1-benzofuran-6-yl](methylsulfonyl)amino}butanoate]	60
CNC(=O)c1c(-c2ccc(F)cc2)oc2cc(N(C)S(C)(=O)=O)c(-c3cccc(-c4nc5ccc(C)cc5o4)c3)cc12 [Example 174]	10.4
CNC(=O)c1c(-c2ccc(F)cc2)oc2cc(N(C)S(C)(=O)=O)c(-c3cccc(-c4nc5c(F)cccc5s4)c3)cc12 [Example 278]	3.2
CNC(=O)c1c(-c2ccc(F)cc2)oc2cc(N(C)S(C)(=O)=O)c(-c3cccc(-c4[nH]c5ccccc5c4C)c3)cc12 [Compound 370]	8.8
CNC(=O)c1c(-c2ccc(F)cc2)oc2cc(N(C)S(C)(=O)=O)c(-c3cc(F)c(F)c(-c4nc5cccnc5o4)c3)cc12 [Example 244]	1.3
CNC(=O)c1c(-c2ccc(F)cc2)oc2cc(N(C)C(=O)CN(C)c3ccccc3)c(-c3ccccc3)cc12 [Example 74, 2-(4-fluorophenyl)-N-methyl-6-[methyl(N-methyl-N-phenylglycyl)amino]-5-phenyl-1-benzofuran-3-carboxamide]	395
CNC(=O)c1c(-c2ccc(F)cc2)oc2cc(N(C)S(C)(=O)=O)c(-c3cc(Cl)cc(-c4nc5ccccc5o4)c3)cc12 [Example 178]	7
CNC(=O)c1c(-c2ccc(F)cc2)oc2cc(N(C)S(C)(=O)=O)c(-c3ccc(F)c(-c4nc5ncccc5s4)c3)cc12 [Example 260]	3.7
CNC(=O)c1c(-c2ccc(F)cc2)oc2cc(N(C)S(C)(=O)=O)c(-c3cc(-c4nc5ncccc5o4)ccc3Cl)cc12 [Example 204]	4.5
CNC(=O)c1c(-c2ccc(F)cc2)oc2cc(N(C)S(C)(=O)=O)c(-c3cc(F)cc(-c4nc5ncc(Cl)cc5o4)c3)cc12 [Example 199]	2.9
CNC(=O)c1c(-c2ccc(F)cc2)oc2cc(N(C)S(C)(=O)=O)c(-c3cc(C#N)cc(-c4nc5cccnc5[nH]4)c3)cc12 [Example 323]	2.4
CNC(=O)c1c(-c2ccc(F)cc2)oc2cc(N(C)S(C)(=O)=O)c(-c3cc(OC)c(OC)c(-c4nc5ccccc5o4)c3)cc12 [Example 182]	2.3
CNC(=O)c1c(-c2ccc(F)cc2)oc2cc(N(C)S(C)(=O)=O)c(-c3cccc(-c4nc5cccc(C)c5o4)c3)cc12 [Example 175]	13.8
CNC(=O)c1c(-c2ccc(F)cc2)oc2cc(N(C)S(C)(=O)=O)c(-c3cc(OC)cc(-c4nc5cccnc5[nH]4)c3)cc12 [Example 314]	1.5
CNC(=O)c1c(-c2ccc(F)cc2)oc2cc(N(C)S(C)(=O)=O)c(-c3cc(Cl)cc(-c4nc5cccnc5o4)c3)cc12 [Example 229]	3.7
